Reference: PubChem BioAssay (NCI)
Values joined by “and” are separate entries in the source; they are usually repeats but may differ in a detail not shown here. Equal entries are not always repeated.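 Exposure lasted 48 hours, with cells grown in 96-well plates and compounds tested at five concentrations. At the GI50, growth is halved. TGI is the concentration that stops growth completely.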 Where a SMILES comes first, the peptide text is derived from it. The star is where a group is joined. X36 = O=C(c1ccc(-c2ccc(Cl)cc2Cl)o1)*

Experiments:
Assay in all cases: DTP human tumour cell line panel, 48 h
[1] = test system: IGROV1 ovarian
[2] = test system: SNB-75 CNS
[3] = test system: SR leukemia
[4] = test system: NCI-H522 lung
[5] = test system: RXF 393 renal
[6] = test system: HCT-15 colon
[7] = test system: HOP-92 NSCLC
[8] = test system: M14 melanoma
[9] = test system: PC-3 prostate
[10] = test system: CAKI-1 renal

SMILES | TGI [1] | TGI [2] | TGI [3] [µM] | TGI [4] | TGI [5] | TGI [6] | TGI [7] | TGI [8] | TGI [9] | TGI [10] [µM] | GI50 [1] | GI50 [2] | GI50 [3] | GI50 [5] | GI50 [7] | GI50 [8] [µM] | GI50 [10]
C[C@H](N)C(=O)Nc1ccc(-c2nc3ccccc3s2)cc1 | 40.4 µM | 41.6 µM | 31.2 | 48 µM | > 100 µM | 36.2 µM | 95.3 µM | 24.1 µM | 63.7 µM | 36.3 |  |  |  |  |  |  | 
Cc1ccn2c(=O)cc(-c3ccccc3)nc2c1 | > 100 µM | > 100 µM | > 100 | > 100 µM | > 100 µM | > 100 µM | > 100 µM | > 100 µM | > 100 µM |  |  |  |  |  |  |  | 
COc1cc(CNc2ccc(SC)cc2)cc(OC)c1OC | > 82.1 µM and 71.6 µM | 86.3 µM and 65.5 µM | > 100 | 29.3 µM and 11 µM | 39.6 µM and 42.7 µM | 57.5 µM and 78.2 µM | > 96.1 µM and 47.6 µM | > 47 µM and 37.9 µM | > 100 µM and 47.7 µM | > 97.1 | 17.2 µM and 7.73 µM | 15.7 µM and 6.28 µM | 4.17 µM and 1.63 µM | 2.27 µM and 6.5 µM | 15.2 µM and 6.16 µM | 5.28 | 22.5 µM and 11.1 µM
CCOC(=O)c1ccc(N2C(=S)N(C(=O)c3ccccc3)C(=Nc3ccccc3)C2=Nc2ccccc2)cc1 | > 100 µM | 74.6 µM | > 100 | > 100 µM |  | > 100 µM | 78.7 µM | > 100 µM | > 100 µM | > 100 |  |  |  |  |  |  | 
Cc1ccc2nc(Cl)c(/C=N/N3C(=O)/C(=C/c4ccccc4S)N=C3c3ccccc3)cc2c1 | > 100 µM | 86.5 µM | 60.8 |  |  | > 100 µM | > 100 µM | 79.4 µM | > 100 µM | > 100 |  |  |  |  |  |  | 
C=CCCC(=O)CC(O)(C(F)(F)F)C(F)(F)F | > 100 µM | > 100 µM | > 100 | > 100 µM | > 100 µM | > 100 µM | > 100 µM | > 100 µM | > 100 µM | > 100 |  |  |  |  |  |  | 
CCC(C)C(NC(=O)CNC(=O)C(Cc1ccccc1)NC(=O)C1CCCN1C(=O)c1ccc(-c2ccc(Cl)cc2Cl)o1)C(=O)OC (configuration not stated) (X36-PFGI-OMe; configuration not given here) | > 100 µM | 69.4 µM | 95.6 | > 100 µM | > 100 µM | > 100 µM | 41.9 µM | > 100 µM | 49.1 µM | > 100 |  |  |  |  |  |  | 
O=C1c2ccccc2-c2nc(-c3cccc([N+](=O)[O-])c3)nnc21 | > 100 µM | 59 µM | > 100 | > 100 µM | > 100 µM | 59.9 µM | > 100 µM | 73.2 µM | > 100 µM | 12.6 |  |  |  |  |  |  | 
COC(=O)C1=CC(=O)OC1(OO)c1ccccc1 (configuration not stated) | > 100 µM | > 100 µM | > 100 | > 100 µM | > 100 µM | > 100 µM | > 100 µM | > 100 µM | > 100 µM | > 100 |  |  |  |  |  |  | 
CCC1(C)N=C(c2cnccn2)NN1c1ccc(Cl)cc1 (configuration not stated) | > 100 µM | > 100 µM | 76.2 | > 100 µM | > 100 µM | > 100 µM | > 100 µM | > 100 µM | > 100 µM | > 100 |  |  |  |  |  |  | 
O=C1CCCCC(=O)OC2(CCCCC2=O)CC1 (configuration not stated) | > 100 µM | > 100 µM | > 100 | > 100 µM | > 100 µM | > 100 µM | > 100 µM | > 100 µM | > 100 µM | > 100 |  |  |  |  |  |  | 
N#C/C(=C\n1ccc(=O)[nH]c1=S)C(N)=O | > 100 µM | > 100 µM | > 100 | > 100 µM | > 100 µM | > 100 µM | > 100 µM | > 100 µM | > 100 µM | > 100 |  |  |  |  |  |  | 
CC1(CF)SCc2nc3ccccc3n21 (configuration not stated) | > 100 µM | > 100 µM | > 100 | > 100 µM | > 100 µM | > 100 µM | > 100 µM | > 100 µM | > 100 µM | > 100 |  |  |  |  |  |  | 
Nc1ccc(N=Nc2ccccc2)cc1 | > 100 µM | 56 µM | > 100 |  | > 100 µM | > 100 µM | > 100 µM | > 100 µM | > 100 µM | > 100 |  |  |  |  |  |  | 
Cc1ccc2c(=O)cc(-c3cccs3)[nH]c2n1 | > 100 µM | 63.3 µM | > 100 | > 47.4 µM | > 62.6 µM | > 100 µM | > 100 µM | > 100 µM | > 95.8 µM | > 100 |  |  |  |  |  |  | 
CC1Cn2c(nc3ccccc32)NC1=O (configuration not stated) | > 100 µM | > 100 µM | > 100 | > 100 µM | > 100 µM | > 100 µM | > 100 µM | > 100 µM | > 100 µM | > 100 |  |  |  |  |  |  | 
COc1ccc(/C=N/N=C(\N)NO)c(O)c1 | > 10 µM | 2.42 µM | > 10 | > 10 µM | > 10 µM | > 10 µM | > 10 µM | > 10 µM | > 10 µM | 9.58 |  |  |  |  |  |  | 
COC(=O)[C@H](Cc1ccccc1)NC(=O)[C@H](Cc1ccccc1)NC(=O)[C@@H]1CCCN1C(=O)N[C@H]1C2C=CC(C2)C1C(=O)N1CCC[C@H]1C(=O)N[C@@H](C)C(=O)N[C@H](C(=O)OC)C(C)C (some centres not stated) | > 100 µM | > 100 µM | > 100 | > 100 µM | > 100 µM | > 100 µM | > 100 µM | > 100 µM | > 100 µM | > 100 |  |  |  |  |  |  | 
N#Cc1nc(-c2cccs2)oc1N | > 100 µM | > 100 µM | > 100 | 92 µM | > 100 µM | > 100 µM | > 100 µM | > 100 µM | > 100 µM | 53.1 |  |  |  |  |  |  | 
